This is an account of results in US11944624B2, “Peptide and small molecule agonists of EphA and their uses” (CASE WESTERN RESERVE UNIVERSITY, priority 2017, dated 2024).

Structures are written as SMILES.

In one data set the test system is PC-3 cells. Briefly: Cell rounding of PC-3 cells. Details: dose or concentration left out as unconfirmed. The class given is cell-based, human. From the text:
As we first reported in 2000, EphA2 activation on PC-3 cells by ephrin-A1 induced rapid cell rounding, a phenomenon that is correlated with inhibition of integrin function.

The target in a further data set is T1, EphA1 (Homo sapiens, UniProt P21709).
T1 construct: expressed in transfected cells; host or cells: HEK 293
T1 sequence (P21709 26-976): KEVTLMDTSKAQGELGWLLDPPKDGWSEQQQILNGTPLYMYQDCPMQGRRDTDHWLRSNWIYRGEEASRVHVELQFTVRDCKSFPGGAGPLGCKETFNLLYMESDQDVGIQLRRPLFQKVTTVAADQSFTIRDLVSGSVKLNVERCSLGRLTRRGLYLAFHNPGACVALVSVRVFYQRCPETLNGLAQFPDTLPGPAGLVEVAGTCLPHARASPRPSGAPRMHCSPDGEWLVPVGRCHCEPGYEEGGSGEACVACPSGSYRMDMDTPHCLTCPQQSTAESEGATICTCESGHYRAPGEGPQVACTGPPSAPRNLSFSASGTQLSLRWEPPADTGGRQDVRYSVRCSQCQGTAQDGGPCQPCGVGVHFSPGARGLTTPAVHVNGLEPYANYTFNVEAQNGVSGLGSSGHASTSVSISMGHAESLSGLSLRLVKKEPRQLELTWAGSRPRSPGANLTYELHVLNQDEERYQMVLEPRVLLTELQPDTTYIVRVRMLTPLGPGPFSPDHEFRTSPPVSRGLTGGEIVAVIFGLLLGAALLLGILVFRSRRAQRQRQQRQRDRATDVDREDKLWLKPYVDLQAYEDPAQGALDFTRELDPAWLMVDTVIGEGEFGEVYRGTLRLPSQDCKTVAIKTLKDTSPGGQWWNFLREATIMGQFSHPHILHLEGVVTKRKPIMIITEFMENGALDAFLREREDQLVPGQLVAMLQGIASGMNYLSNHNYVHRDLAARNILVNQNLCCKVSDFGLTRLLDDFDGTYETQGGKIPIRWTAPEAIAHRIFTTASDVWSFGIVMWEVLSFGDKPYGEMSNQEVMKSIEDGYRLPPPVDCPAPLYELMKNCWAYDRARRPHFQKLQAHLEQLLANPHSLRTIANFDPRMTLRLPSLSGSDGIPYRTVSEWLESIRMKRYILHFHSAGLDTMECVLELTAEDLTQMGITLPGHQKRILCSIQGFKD
Put plainly: EphA1 activation in HEK 293 cells overexpressing EphA1. The class given is cell-based. The following applies: HEK 293 overexpressing EphA1, same concentrations.

The subject of data set [1] is DU145 and PC-3 cell xenografts. The following applies: previously shown, independent of α1-adrenoreceptor; cited from earlier work.
Another data set deals with ERK and Akt activities. Briefly: ERK and Akt activities in LK133A-A2 cells (EphA2 restored). The class given is cell-based, mice. On the procedure:
Cells were plated in 24-well dishes at a density of 100,000 cells/well and grown for 24 hours prior to stimulation with appropriate compounds and ephrins for the given amounts of time. Compounds were prepared in DMSO at 500 times the final concentrations and 0.2% DMSO was used as vehicle control. Following treatment, cells were lysed directly in SDS Gel Loading Buffer and immunoblotted as described previously. Immunoprecipitation and immunofluorescence staining was performed as described. For immunoprecipitation, 300,000 cells/well were plated in 6-well dishes and lysed in modified RIPA Buffer (20 mM Tris-HCl pH 7.4, 20 mM NaF, 150 mM NaCl, 10% glycerol, 0.1% SDS, 0.5% DCA, 2 mM EDTA, 1% Triton X-100) following treatment. Either 10 μg of ephrin-A1-Fc, or […] of EphA2 mouse monoclonal antibody (Clone D7, Millipore) were used, and mouse IgG was used as a negative control for EphA2 IP.
To address this question, we utilized an immortalized liver epithelial cell line, LK133A, isolated from a hepatoma induced by DEN in EphA2 knockout mice. Retroviral vector was used to restore EphA2 expression in these cells (LK133A-A2), and cells transduced with an empty vector were used as control (LK133AVec).

The next data set relates to PC3-DAB2IP KD cells. Briefly: In vivo metastasis assay, orthotopic PC3-DAB2IP KD xenograft. On the procedure:
PC-3 cells (from ATCC) engineered to express both GFP and DAB2IP shRNA were characterized previously. Cells were suspended in serum free medium and 2,000 cells injected directly into the prostate glands of 7 week old NCr athymic nu/nu mice. Three days after injection, mice were divided into two groups, one receiving vehicle alone (5% DMSO/10% Cremophor/PBS) and another 50 mg/kg doxazosin via intraperitoneal injection daily for 10 days. Mice were sacrificed 14 days later and intact primary tumors were imaged under a UV light box with a Digital camera. Lungs were dissected into separate lobes and GFP-expressing metastases were imaged using an inverted fluorescent microscope (Leica). Metastases were enumerated in the two largest lung lobes and placed into size categories based upon their diameters, measured in number of cells (1-10 cells). Total metastatic burden was calculated in each mouse using the following equation: [burden=Σ (# of foci×focus diameter)].
We took advantage of this newly established model system to test how doxazosin can affect metastasis of prostate cancer. To this end, PC3-DAB2IP KD cells were injected orthotopically into the prostate glands of nude mice. Three days later, recipient mice were subject to systemic treatment by daily i.p. injection of either vehicle control, or 50 mg/kg doxazosin for 10 days. Since these cells also expressed green fluorescent protein (GFP), freshly dissected primary tumors could be readily visualized in a GFP light box (FIG. 7A top panels), and distal metastases to lungs and lymph nodes could be observed and quantified under a fluorescent microscope (FIG. 7A lower panels).
Next, we determined whether doxazosin treatment might impact overall survival. Nude mice orthotopically implanted with the PC3-DAP2IP KD cells were treated for 10 days with either doxazosin, or vehicle control and monitored for survival.

The mark [2] stands for this setting: 50 mg/kg i.p. daily for 10 days, versus vehicle.

Method for EphA1: Cells were plated in 24-well dishes at a density of 100,000 cells/well and grown for 24 hours prior to stimulation with appropriate compounds and ephrins for the given amounts of time. Compounds were prepared in DMSO at 500 times the final concentrations and 0.2% DMSO was used as vehicle control. Following treatment, cells were lysed directly in SDS Gel Loading Buffer and immunoblotted as described previously. […] For immunoprecipitation, 300,000 cells/well were plated in 6-well dishes and lysed in modified RIPA Buffer (20 mM Tris-HCl pH 7.4, 20 mM NaF, 150 mM NaCl, 10% glycerol, 0.1% SDS, 0.5% DCA, 2 mM EDTA, 1% Triton X-100) following treatment. Either 10 μg of ephrin-A1-Fc, or 4 mg of EphA2 mouse monoclonal antibody (Clone D7, Millipore) were used, and mouse IgG was used as a negative control for EphA2 IP. […] For this purpose, HEK 293 cell lines overexpressing EphA1, EphA2, EphA3, EphA4, and EphB3 kinases were utilized.

As for `COc1cc2nc(N3CCN(C(=O)C4COc5ccccc5O4)CC3)nc(N)c2cc1OC` (stereo not drawn) [Doxazosin, 2-[4-(2,3-Dihydro-1,4-benzodioxine-2-carbonyl)piperazin-1-yl]-6,7-dimethoxyquinazolin-4-amine], the cell rounding entry in the data set with PC-3 cells is “caused rounding of PC-3 cells”. The EphA1 activation entry on EphA1 was “no activation of EphA1”. For the same molecule, in data set [1], the subcutaneous xenograft growth result was “moderately decrease subcutaneous growth of DU145 and PC-3 cell xenografts”. Also, in the data set with ERK and Akt activities, the “ERK and Akt inhibition after reintroduction of EphA2” value is “restored ERK and Akt inhibition”. Moreover, the side effects result with PC3-DAB2IP KD cells (50 mg/kg i.p. daily for 10 days) is given as “no notable side effects”. In the data set on PC3-DAB2IP KD cells (setting [2]), the body weight result is “no changes in body weight”, the “number of lung metastases” value is recorded as “significant reduction in the number of lung metastases”, the primary tumor sizes result is “difference was not statistically significant” and the “sizes of lung metastases” value is “significantly smaller”. Further, in the data set on PC3-DAB2IP KD cells (setting [2]), the total metastatic burden result was “even more significantly reduced” and the “tumor cell dissemination to local lymph nodes” value is recorded as “reduced, but not to a significant extent”. The molecule further displayed an overall survival in the data set on PC3-DAB2IP KD cells (27 days after cell implantation, treated 10 days, vehicle 30%) of 70%.
